Toxic doses and inconclusive results are not listed. Square brackets hold non-standard residues; d marks the D form. Peptide text beside a SMILES is read from it. * marks the point of attachment. ξ: configuration not given here. ξH = NC(Cc1c[nH]cn1)C(=O)O; Cbz = O=C(OCc1ccccc1)*

The results in this text go back to PubChem BioAssay AID248 (DTP/NCI, 2004).

In this assay the test system is L1210 leukemia ip in BDF1 mice, survival T/C. As to the kind of experiment: NCI In Vivo Anticancer Drug Screen. Data for tumor model L1210 Leukemia (intraperitoneal) in B6D2F1 (BDF1) mice. The settings on record: endpoint: mean survival time, higher = longer survival. The method in brief: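 Transplanted-tumor mice were given test agent; controls received vehicle only. Survival readings from the two groups were divided (treated over control).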

[1] abbreviates: dose: 100.0 mg/kg/injection, schedule: Q01DX001 (ip), vehicle: Klucel (hydroxypropylcellulose) (HPC).
The mark [2] stands for this setting: dose: 100.0 mg/kg/injection, schedule: Q01DX009 (ip), vehicle: Klucel (hydroxypropylcellulose) (HPC).
Where [3] appears, read: dose: 200.0 mg/kg/injection, schedule: Q01DX001 (ip), vehicle: Klucel (hydroxypropylcellulose) (HPC).
Setting [4] is: dose: 200.0 mg/kg/injection, schedule: Q01DX009 (ip), vehicle: Klucel (hydroxypropylcellulose) (HPC).
Where [5] appears, read: dose: 400.0 mg/kg/injection, schedule: Q01DX001 (ip), vehicle: Klucel (hydroxypropylcellulose) (HPC).
Setting [6] is: dose: 400.0 mg/kg/injection, schedule: Q01DX009 (ip), vehicle: Klucel (hydroxypropylcellulose) (HPC).
Where [7] appears, read: dose: 100.0 mg/kg/injection, schedule: Q04DX003 (ip), vehicle: Klucel (hydroxypropylcellulose) (HPC).
Where [8] appears, read: dose: 200.0 mg/kg/injection, schedule: Q04DX003 (ip), vehicle: Klucel (hydroxypropylcellulose) (HPC).
[9] abbreviates: dose: 400.0 mg/kg/injection, schedule: Q04DX003 (ip), vehicle: Klucel (hydroxypropylcellulose) (HPC).
[10] abbreviates: dose: 400.0 mg/kg/injection, schedule: Q01DX001 (ip), vehicle: carboxymethylcellulose (CMC).
The mark [11] stands for this setting: dose: 100.0 mg/kg/injection, schedule: Q04DX003 (ip), vehicle: saline.

On to `Oc1ccc(O)c2[nH]c(-c3ccc(Cl)cc3)cc12`, for which the T/C reads like this: (dose: 25.0 mg/kg/injection, schedule: Q04DX002 (ip), vehicle: Klucel (hydroxypropylcellulose) (HPC)) 94 % of control; (dose: 50.0 mg/kg/injection, schedule: Q04DX002 (ip), vehicle: Klucel (hydroxypropylcellulose) (HPC)) 100 % of control; (dose: 100.0 mg/kg/injection, schedule: Q04DX002 (ip), vehicle: Klucel (hydroxypropylcellulose) (HPC)) 100 % of control.
Regarding `COc1cc2cc(C)c(C)cc2cc1OC`, the T/C was 98 % of control under setting [1]; 103 % of control under setting [2]; 101 % of control under setting [3]; 110 % of control under setting [4]; 98 % of control under setting [5]; 109 % of control under setting [6].
With `Cc1c(Cl)c(N(C)S(=O)(=O)c2ccccc2)c(C)c(Cl)c1N(C)S(=O)(=O)c1ccccc1`, the T/C under setting [7] was 103 % of control, the T/C under setting [8] was 96 % of control and the T/C under setting [9] was 95 % of control.
Take `O=C(NC(=O)c1cccc(Br)c1)Nc1ccccc1`: the T/C is 92 % of control (dose: 264.0 mg/kg/injection, schedule: Q01DX001 (ip), vehicle: carboxymethylcellulose (CMC)); 96 % of control under setting [10]; 90 % of control (dose: 600.0 mg/kg/injection, schedule: Q01DX001 (ip), vehicle: carboxymethylcellulose (CMC)).
Take `CN1CCN(Cn2cnc3c2c(=O)n(C)c(=O)n3C)CC1`: the T/C reads like this: (dose: 75.0 mg/kg/injection, schedule: Q01DX001 (ip), vehicle: saline) 92 % of control; (dose: 150.0 mg/kg/injection, schedule: Q01DX001 (ip), vehicle: saline) 100 % of control; (dose: 300.0 mg/kg/injection, schedule: Q01DX001 (ip), vehicle: saline) 122 % of control.
With `CC[N+](CC)(CC)CCOC(=O)C1C2CC3OC(=O)C1C3C2` (configuration not stated), under setting [11], the T/C was 96 % of control.
Turning to `CC1(C)NC(=O)N(Cc2ccccc2)C1=O`, the T/C reads like this: under setting [2], 94 % of control; (dose: 100.0 mg/kg/injection, schedule: Q04DX003 (ip), vehicle: saline with Tween-80) 98 % of control; under setting [4], 97 % of control; (dose: 200.0 mg/kg/injection, schedule: Q04DX003 (ip), vehicle: saline with Tween-80) 110 % of control; under setting [6], 100 % of control; (dose: 400.0 mg/kg/injection, schedule: Q04DX003 (ip), vehicle: saline with Tween-80) 105 % of control.
On to `FC(F)(F)c1ccc(Cl)c(NC2=NCCS2)c1`, for which the T/C reads like this: under setting [1], 114 % of control; under setting [7], 97 % of control; under setting [3], 103 % of control; under setting [8], 98 % of control; under setting [5], 97 % of control; under setting [9], 88 % of control.
Turning to `CNC(=O)Nc1ccc(Cl)cc1`, the T/C under setting [1] was 107 % of control, the T/C under setting [3] is 105 % of control and the T/C under setting [5] was 107 % of control.
In the case of `O=C(CNC(=O)OCc1ccccc1)NC(Cc1cnc[nH]1)C(=O)O` (stereo not drawn) (Cbz-Gly-[ξH]-OH), the T/C reads like this: (dose: 100.0 mg/kg/injection, schedule: Q01DX001 (ip), vehicle: saline) 96 % of control; (dose: 200.0 mg/kg/injection, schedule: Q01DX001 (ip), vehicle: saline) 104 % of control; (dose: 400.0 mg/kg/injection, schedule: Q01DX001 (ip), vehicle: saline) 107 % of control.
As to `Cc1ccc(C2(C(=O)O)CC2)cc1`, the T/C by setting is: (dose: 100.0 mg/kg/injection, schedule: Q01DX009 (ip), vehicle: saline with Tween-80) 100 % of control; (dose: 200.0 mg/kg/injection, schedule: Q01DX009 (ip), vehicle: saline with Tween-80) 97 % of control; (dose: 400.0 mg/kg/injection, schedule: Q01DX009 (ip), vehicle: saline with Tween-80) 94 % of control.
Regarding `COc1ccccc1CN1CCCN(Cc2ccccc2OC)C1c1ccc(N(CCCl)CCCl)cc1Cl`, the T/C is 95 % of control (dose: 50.0 mg/kg/injection, schedule: Q01DX001 (ip), vehicle: carboxymethylcellulose (CMC)); 101 % of control (dose: 100.0 mg/kg/injection, schedule: Q01DX001 (ip), vehicle: carboxymethylcellulose (CMC)); 98 % of control (dose: 200.0 mg/kg/injection, schedule: Q01DX001 (ip), vehicle: carboxymethylcellulose (CMC)); 95 % of control under setting [10].
For `CN(N=O)C(=O)NC1CCOCC1`, the T/C was 102 % of control (dose: 10.0 mg/kg/injection, schedule: Q01DX001 (ip), vehicle: saline); 103 % of control (dose: 20.0 mg/kg/injection, schedule: Q01DX001 (ip), vehicle: saline); 104 % of control (dose: 40.0 mg/kg/injection, schedule: Q01DX001 (ip), vehicle: saline); 109 % of control (dose: 60.0 mg/kg/injection, schedule: Q01DX001 (ip), vehicle: saline); 102 % of control (dose: 90.0 mg/kg/injection, schedule: Q01DX001 (ip), vehicle: saline); 119 % of control (dose: 187.0 mg/kg/injection, schedule: Q01DX001 (ip), vehicle: saline). Also, the T/C reads like this: (dose: 250.0 mg/kg/injection, schedule: Q01DX001 (ip), vehicle: saline) 112 % of control; (dose: 500.0 mg/kg/injection, schedule: Q01DX001 (ip), vehicle: saline) 159 % of control; (dose: 750.0 mg/kg/injection, schedule: Q01DX001 (ip), vehicle: saline) 187 % of control.
For `CC(=O)OC/C=C(\C)CCC=O`, the T/C was 98 % of control (dose: 100.0 mg/kg/injection, schedule: Q04DX003 (ip), vehicle: water); 102 % of control (dose: 200.0 mg/kg/injection, schedule: Q04DX003 (ip), vehicle: water); 100 % of control (dose: 400.0 mg/kg/injection, schedule: Q04DX003 (ip), vehicle: water).
Regarding `CCCCCCC(O)CO` (configuration not stated), the T/C under setting [11] was 105 % of control; the T/C (dose: 200.0 mg/kg/injection, schedule: Q04DX003 (ip), vehicle: saline) is 112 % of control; the T/C (dose: 400.0 mg/kg/injection, schedule: Q04DX003 (ip), vehicle: saline) was 109 % of control.
Take `CCC(=O)Nc1cc(Cl)ccc1C`: the T/C runs as follows: under setting [2], 98 % of control; under setting [7], 102 % of control; under setting [4], 98 % of control; under setting [8], 102 % of control; under setting [6], 95 % of control; under setting [9], 102 % of control.
As for `O=C(/C=C/c1ccccc1)Nc1ccccc1C(F)(F)F`, the T/C was 98 % of control under setting [2], 104 % of control under setting [4] and 101 % of control under setting [6].
Take `O=C1O/C(=C\c2ccccc2)C(O)=C1c1ccccc1`: the T/C (dose: 100.0 mg/kg/injection, schedule: Q01DX001 (ip), vehicle: saline with Tween-80) was 100 % of control.
For `CCC[CH2][Sn]([CH2]CCC)([CH2]CCC)[CH2]C(C)(C)c1ccccc1`, the T/C (dose: 75.0 mg/kg/injection, schedule: Q01DX001 (ip), vehicle: other) is 91 % of control.
Regarding `CN(C(=O)Cl)c1ccccc1`, the T/C was 95 % of control (dose: 12.5 mg/kg/injection, schedule: Q01DX009 (ip), vehicle: Klucel (hydroxypropylcellulose) (HPC)); 95 % of control (dose: 12.5 mg/kg/injection, schedule: Q04DX003 (ip), vehicle: Klucel (hydroxypropylcellulose) (HPC)); 95 % of control (dose: 25.0 mg/kg/injection, schedule: Q01DX009 (ip), vehicle: Klucel (hydroxypropylcellulose) (HPC)); 97 % of control (dose: 25.0 mg/kg/injection, schedule: Q04DX003 (ip), vehicle: Klucel (hydroxypropylcellulose) (HPC)); 93 % of control (dose: 50.0 mg/kg/injection, schedule: Q01DX009 (ip), vehicle: Klucel (hydroxypropylcellulose) (HPC)); 93 % of control (dose: 50.0 mg/kg/injection, schedule: Q04DX003 (ip), vehicle: Klucel (hydroxypropylcellulose) (HPC)).
As to `CC(=O)C(C)[P+](c1ccccc1)(c1ccccc1)c1ccccc1` (configuration not stated), the T/C reads like this: (dose: 6.25 mg/kg/injection, schedule: Q01DX009 (ip), vehicle: water) 104 % of control; (dose: 12.5 mg/kg/injection, schedule: Q01DX009 (ip), vehicle: water) 95 % of control; (dose: 12.5 mg/kg/injection, schedule: Q04DX003 (ip), vehicle: water) 102 % of control; (dose: 25.0 mg/kg/injection, schedule: Q01DX009 (ip), vehicle: water) 102 % of control; (dose: 25.0 mg/kg/injection, schedule: Q04DX003 (ip), vehicle: water) 100 % of control; (dose: 50.0 mg/kg/injection, schedule: Q01DX009 (ip), vehicle: water) 96 % of control.
